{"source": "ChEMBL document CHEMBL5104179", "about": "“Discovery and Structural Characterization of Small Molecule Binders of the Human CTLH E3 Ligase Subunit GID4” (J Med Chem, 2022)"}
{"molecular_target": "T1, Glucose-induced degradation protein 4 homolog (Homo sapiens, UniProt Q8IVV7)", "T1 sequence (Q8IVV7 whole entry)": "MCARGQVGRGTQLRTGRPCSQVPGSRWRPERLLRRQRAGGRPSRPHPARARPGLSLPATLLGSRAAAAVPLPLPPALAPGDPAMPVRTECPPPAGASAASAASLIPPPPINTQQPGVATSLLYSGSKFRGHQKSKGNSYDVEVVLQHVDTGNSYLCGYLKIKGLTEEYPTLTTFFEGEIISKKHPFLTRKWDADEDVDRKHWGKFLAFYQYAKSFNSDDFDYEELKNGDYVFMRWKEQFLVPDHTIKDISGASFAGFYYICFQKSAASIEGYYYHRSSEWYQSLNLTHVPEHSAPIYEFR", "test": "Inhibition of GID4 (124 to 289) (unknown origin) expressed in Escherichia coli BL21(DE3) using PGLWKS-FITC peptide by competitive-fluorescence polarization binding assay", "conditions": "not given", "units": {"IC50": "µM"}}
{"smiles": "CC1CN=C(Nc2cccc(F)c2)S1", "note": "(configuration not stated)", "IC50": 264}
{"molecular_target": "T2, Glucose-induced degradation protein 4 homolog (Homo sapiens) (UniProt Q8IVV7)", "T2 sequence (whole entry)": "T1 sequence (Q8IVV7 whole entry)", "conditions": "not given", "units": {"ΔTm": "°C"}}
{"smiles": "OCc1ccc(C2NCCc3sccc32)cc1", "note": "(configuration not stated)", "ΔTm": 4.4}
{"smiles": "Clc1ccc(C2NCCc3sccc32)cc1", "note": "(configuration not stated)", "ΔTm": 5.1}
{"smiles": "N#Cc1ccc(C2NCCc3sccc32)cc1", "note": "(configuration not stated)", "ΔTm": 2}
{"smiles": "C[C@H](N)c1ccc(Cl)cc1", "ΔTm": "> 1"}
{"smiles": "Clc1ccc(CNCc2cccnc2)cc1", "ΔTm": "> 1"}
{"smiles": "c1cncc(C2NCCc3sccc32)c1", "note": "(configuration not stated)", "ΔTm": 2.5}
{"smiles": "O=[N+]([O-])c1cccc(C2NCCc3sccc32)c1", "note": "(configuration not stated)", "ΔTm": 4.9}
{"smiles": "CC1CN=C(Nc2ccc(N(C)C)cc2)S1", "note": "(configuration not stated)", "ΔTm": 3.1}
{"smiles": "CNC(=O)C1c2ccccc2CN1C(=O)[C@@H](Cc1c(C)[nH]c2ccccc12)NC(=O)CNCCOc1ccc(C)cc1", "note": "(some centres not stated)", "ΔTm": 0.1}
{"smiles": "Clc1ccccc1C1NCCc2sccc21", "note": "(configuration not stated)", "ΔTm": 5}
{"smiles": "CC1CSC(Nc2cccc3ccccc23)=N1", "note": "(configuration not stated)", "ΔTm": 2.5}
{"smiles": "Oc1cccc(C2NCCc3sccc32)c1", "note": "(configuration not stated)", "ΔTm": 6.1}
{"smiles": "Nc1ccc(C2NCCc3sccc32)cc1", "note": "(configuration not stated)", "ΔTm": 7.1}
{"smiles": "c1ccc(C2NCCc3sccc32)cc1", "note": "(configuration not stated)", "ΔTm": 7.9}
{"smiles": "O=[N+]([O-])c1ccccc1C1NCCc2sccc21", "note": "(configuration not stated)", "ΔTm": 4.1}
{"smiles": "Brc1ccc(C2NCCc3sccc32)cc1", "note": "(configuration not stated)", "ΔTm": 4.2}
{"smiles": "CNC(=O)[C@H](CC1CCCCC1)NC(=O)[C@@H](NC(=O)[C@H]1NC[C@@H]1c1ccccc1)c1ccsc1", "ΔTm": 4.5}
{"smiles": "Nc1ccccc1C1NCCc2sccc21", "note": "(configuration not stated)", "ΔTm": 2.8}
{"smiles": "c1cc2c(s1)CCNC2", "ΔTm": 1.9}
{"smiles": "COc1ccc(C2NCCc3sccc32)cc1", "note": "(racemic)", "ΔTm": 4.5}
{"smiles": "CC(=O)c1ccc(NC2=NCC(C)S2)cc1", "note": "(configuration not stated)", "ΔTm": -0.1}
{"smiles": "N#Cc1cccc(C2NCCc3sccc32)c1", "note": "(configuration not stated)", "ΔTm": 3.9}
{"smiles": "CCOc1ccc(NC2=NCC(C)S2)cc1", "note": "(configuration not stated)", "ΔTm": 0.8}
{"smiles": "COc1cccc2c1CCNC2c1ccccc1", "note": "(configuration not stated)", "ΔTm": 4.4}
{"smiles": "Fc1ccc(C2NCCc3sccc32)cc1", "note": "(configuration not stated)", "ΔTm": 3.8}
{"smiles": "NCc1ccccc1Oc1ccccc1", "ΔTm": "> 1"}
{"smiles": "CC1CN=C(Nc2ccc(F)cc2)S1", "note": "(racemic)", "ΔTm": 3.2}
{"smiles": "COc1ccc(NC2=NCC(C)S2)cc1", "note": "(configuration not stated)", "ΔTm": 3.1}
{"smiles": "CNC(=O)[C@H](CCc1ccccc1)NC(=O)[C@H](NC(=O)CNCc1ccc(OC)cc1OC)c1cccs1", "ΔTm": 16}
{"smiles": "CC1CN=C(Nc2ccc(F)cc2F)S1", "note": "(configuration not stated)", "ΔTm": 0.7}
{"smiles": "CC1(C)CN=C(Nc2ccc(F)cc2)S1", "ΔTm": 1.2}
{"smiles": "c1ccc(NC2=NCCS2)cc1", "ΔTm": 2.5}
{"smiles": "FC(F)(F)c1ccccc1C1NCCc2sccc21", "note": "(configuration not stated)", "ΔTm": 5.3}
{"smiles": "CC(=O)Oc1ccc(C2NCCc3sccc32)cc1", "note": "(configuration not stated)", "ΔTm": 3.3}
{"smiles": "CC1SC(Nc2ccc(F)cc2)=NC1=O", "note": "(configuration not stated)", "ΔTm": 0.6}
{"smiles": "COc1cccc(C2NCCc3sccc32)c1", "note": "(configuration not stated)", "ΔTm": 7.6}
{"smiles": "FC(F)(F)c1ccc(C2NCCc3sccc32)cc1", "note": "(configuration not stated)", "ΔTm": 2.7}
{"smiles": "CC(=O)c1cccc(NC2=NCC(C)S2)c1", "note": "(configuration not stated)", "ΔTm": 3.2}
{"smiles": "O=C(O)c1ccc(-c2ccc(Cl)cc2)o1", "ΔTm": "> 1"}
{"smiles": "COc1ccc2c(c1)CCCC2c1ccccc1", "note": "(configuration not stated)", "ΔTm": 6.4}
{"molecular_target": "T2, Glucose-induced degradation protein 4 homolog (Homo sapiens)", "conditions": "HEK293, dose 50.0 µM, time 10.0 min", "units": {"ΔTm": "°C"}}
{"smiles": "CNC(=O)[C@H](CCc1ccccc1)NC(=O)[C@H](NC(=O)CNCc1ccc(OC)cc1OC)c1cccs1", "ΔTm": 3.8}
